# Source: patent US9974792B2, “Methods for treating cancers” (Gilead Sciences, Inc., priority 2013, dated 2018)
# Tests used:
# [1] = system: subjects with CLL, FL, lymphoplasmacytoid lymphoma/SLL/marginal zone lymphoma, MCL, or DLBCL; test: Example 2: phase 2 trial, safety analysis of all treated subjects; settings: phase 2 study
# Method: A phase 2, open-label, single-agent study was completed to evaluate the efficacy, safety, tolerability, and pharmacodynamics of entospletinib in subjects with relapsed or refractory hematologic malignancies.
# Treatment with entospletinib was at a dose of 800 mg twice a day over 28-day cycles under fasted conditions. Fasting was defined as no food or liquids other than water for 2 hours pre- and 1 hour post-dose.
# Secondary end points included tolerability, objective response rate (ORR), duration of response (DOR), time to response, and lymph node response rate. […] Exploratory end points included plasma drug concentrations and pharmacodynamic biomarkers.
# Subjects were allowed to enroll in the study if they had cytopenias due to CLL. Treatment-emergent cytopenias were defined as a cytopenia that worsened in the period from the first dose of study treatment to 30 days after the last dose of study treatment.
# CCL4 = test: Example 2: serum levels of BCR-induced chemokines; assay type: in vivo, human; settings: days 8 and 29 of treatment
# Source text: (§1) A bone marrow biopsy and aspirate were collected for confirmatory purposes for all subjects who achieved a complete response (CR) or to confirm suspected PD based solely upon declines in the platelet count and/or hemoglobin. Pharmacodynamic assessments, including serum cytokines and protein phosphorylation in circulating CLL cells, occurred before starting therapy and at designated time points thereafter.
# CCL3 = test: Example 2: serum levels of BCR-induced chemokines; assay type: in vivo, human; settings: days 8 and 29 of treatment
# Source text: as §1
# [2] = system: human subjects with CLL or NHL; test: Example 1: safety, disposition and adverse events (Safety Data Set);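 also: evaluated subjects had CLL, FL, DLBCL, MCL, LPL, SLL or MZL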
# Method: Subjects having various hematologic malignancies were evaluated, including subjects with chronic lymphocytic leukemia (CLL), follicular lymphoma (FL), diffuse large B-cell lymphoma (DLBCL), mantle cell lymphoma (MCL), lymphoplasmacytic lymphoma (LPL), small lymphocytic lymphoma (SLL), and marginal zone lymphoma (MZL). The sample size was 10-40/arm.
# Alanine aminotransferase (ALT) was also measured in the subjects.
# [3] = system: phosphorylated Blnk in CD19+CD5+ circulating tumor cells; test: Example 1: BCR-mediated signaling, intracellular phosphoprotein flow cytometry; assay type: in vivo, human; settings: Days 8 and 29 vs Day 1; CLL subjects (n=35)
# Source text: Nominal p-values from tests of mean change of Day 8 and 29 from Day 1 using mixed model for repeated measures are <0.0005.
# [4] = Example 2: entospletinib plasma pharmacokinetics; assay type: in vivo, human; settings: 800 mg twice a day, fasted
# Source text: Clinic visits, including laboratory tests and pharmacodynamic measurements, were scheduled for day 1 of each 28-day cycle. Blood samples for pharmacokinetic analyses of entospletinib were collected on day 1 of each 28-day cycle, on days 8, 15, and 22 of cycle 1 and on day 15 of cycle 2. Additional safety monitoring visits took place on days 8, 15, and 22 of cycle 1 and day 15 of cycle 2.
# [5] = out of 78 subjects, 800 mg BID fasting
smiles,measurement,setting,value
"c1cn2cc(-c3ccc4cn[nH]c4c3)nc(Nc3ccc(N4CCOCC4)cc3)c2n1 [compound of formula I, 6-(1H-indazol-6-yl)-N-(4-morpholinophenyl)imidazo[1,2-a]pyrazin-8-amine]",tolerability,[1],well tolerated
same,serum levels of BCR-induced CCL4,CCL4,Significant reductions
same,serum levels of BCR-induced CCL3,CCL3,Significant reductions
same,"Discontinuing study drug: Adverse Events, %",[2]; ALL N = 78,(14.1%)
same,"Discontinuing study drug: Progressive Disease, %",[2]; ALL N = 78,(19.2%)
same,"Discontinuing study drug: Related AEs, %",[2]; ALL N = 78,(7.7%)
same,"Discontinuing study drug: Adverse Events, %",[2]; CLL N = 39,(7.7%)
same,"Discontinuing study drug: Progressive Disease, %",[2]; CLL N = 39,(10.3%)
same,"Discontinuing study drug: Related AEs, %",[2]; CLL N = 39,(5.1%)
same,"Discontinuing study drug: Adverse Events, %",[2]; NHL N = 39,(20.5%)
same,"Discontinuing study drug: Progressive Disease, %",[2]; NHL N = 39,(28.2%)
same,"Discontinuing study drug: Related AEs, %",[2]; NHL N = 39,(10.3%)
same,"Any event, All Grades, %",[2]; Safety Data Set N=78,(93.6) %
same,"Constipation, All Grades, %",[2]; Safety Data Set N=78,(21.8) %
same,"Constipation, Grade 1",[2]; Safety Data Set N=78,11
same,"Constipation, Grade 2",[2]; Safety Data Set N=78,5
same,"Constipation, Grade 3",[2]; Safety Data Set N=78,1
same,"Cough, All Grades, %",[2]; Safety Data Set N=78,(14.1) %
same,"Cough, Grade 1",[2]; Safety Data Set N=78,9
same,"Cough, Grade 2",[2]; Safety Data Set N=78,1
same,"Cough, Grade 3",[2]; Safety Data Set N=78,1
same,"Decreased appetite, All Grades, %",[2]; Safety Data Set N=78,(20.5) %
same,"Decreased appetite, Grade 1",[2]; Safety Data Set N=78,10
same,"Decreased appetite, Grade 2",[2]; Safety Data Set N=78,6
same,"Diarrhea, All Grades, %",[2]; Safety Data Set N=78,(28.2) %
same,"Diarrhea, Grade 1",[2]; Safety Data Set N=78,20
same,"Diarrhea, Grade 2",[2]; Safety Data Set N=78,2
same,"Dizziness, All Grades, %",[2]; Safety Data Set N=78,(17.9) %
same,"Dizziness, Grade 1",[2]; Safety Data Set N=78,14
same,"Dyspepsia, All Grades, %",[2]; Safety Data Set N=78,(10.3) %
same,"Dyspepsia, Grade 1",[2]; Safety Data Set N=78,3
same,"Dyspepsia, Grade 2",[2]; Safety Data Set N=78,5
same,"Fatigue, All Grades, %",[2]; Safety Data Set N=78,(43.6) %
same,"Fatigue, Grade 1",[2]; Safety Data Set N=78,13
same,"Fatigue, Grade 2",[2]; Safety Data Set N=78,16
same,"Fatigue, Grade 3",[2]; Safety Data Set N=78,5
same,"Headache, All Grades, %",[2]; Safety Data Set N=78,(20.5) %
same,"Headache, Grade 1",[2]; Safety Data Set N=78,13
same,"Headache, Grade 2",[2]; Safety Data Set N=78,2
same,"Headache, Grade 3",[2]; Safety Data Set N=78,1
same,"Insomnia, All Grades, %",[2]; Safety Data Set N=78,(14.1) %
same,"Insomnia, Grade 1",[2]; Safety Data Set N=78,8
same,"Insomnia, Grade 2",[2]; Safety Data Set N=78,3
same,"Nausea, All Grades, %",[2]; Safety Data Set N=78,(30.8) %
same,"Nausea, Grade 1",[2]; Safety Data Set N=78,18
same,"Nausea, Grade 2",[2]; Safety Data Set N=78,4
same,"Nausea, Grade 3",[2]; Safety Data Set N=78,2
same,"Oedema peripheral, All Grades, %",[2]; Safety Data Set N=78,(12.8) %
same,"Oedema peripheral, Grade 1",[2]; Safety Data Set N=78,8
same,"Oedema peripheral, Grade 2",[2]; Safety Data Set N=78,2
same,"Pyrexia, All Grades, %",[2]; Safety Data Set N=78,(19.2) %
same,"Pyrexia, Grade 1",[2]; Safety Data Set N=78,9
same,"Pyrexia, Grade 2",[2]; Safety Data Set N=78,6
same,"Vomiting, All Grades, %",[2]; Safety Data Set N=78,(10.3) %
same,"Vomiting, Grade 1",[2]; Safety Data Set N=78,6
same,"Vomiting, Grade 2",[2]; Safety Data Set N=78,2
same,"Grade 3 and 4 reversible ALT elevations, % of subjects",[2]; [5],12%
same,"Grade 3 and 4 reversible ALT elevations, number of subjects",[2]; [5],9 subjects
same,phosphorylated Blnk in CD19+CD5+ circulating tumor cells,[3],downregulation
same,"Ctrough, mean (% coefficient of variation)",[4],1100 (44%) ng/mL
same,Cmax,"[4]; human, oral, read-out: Cmax, mean (% coefficient of variation)",1490 ng/mL
